One test deals with MDA-MB-231 tumor. In words: MDA-MB-231 xenograft tumor growth in immunodeficient mice. Format: in vivo. The note with it: Tadalafil oral gavage 2 mg/kg once a day; Doxorubicin tail vein 2 mg/kg once a week; 25 days (FIG. 6). As for the experimental part: Immunodeficient mice were seeded with MDA-MB-231 cells respectively. When tumor volumes reached 50-100 mm3, mice were given treatment selected from the following: PBS (Control, Ctrl), Tadalafil, Doxorubicin (DOX), Tadalafil in combination with Doxorubicin (DOX+Tadalafil). Tadalafil was administered by oral gavage (2 mg/kg, once a day) while Doxorubicin was administered by mouse tail vein injection (2 mg/kg, once a week). Body weights of mice and tumor volumes were measured every day for 25 days.

For another test, the system named is tumor. Nature of the test: Later functional experiment (tumor inhibitory effect).
For test [1], the target named is T1, PRMT5 (PRMT5/MEP50 purified protein) (Homo sapiens, UniProt O14744).
T1 construct: purchased abcam ab198151
Nature of the test: SPR affinity analysis (Biacore T200). Format: binding. As for the experimental part: Analysis of affinity of Tadalafil for target protein (PRMT5) was carried out using Biacore T200 analysis platform and SPR technology. Tadalafil was obtained from MCE corporation with catalog no: HY-9 0009A (50 mg). PRMT5/MEP50 purified protein was obtained from abcam corporation with catalog no: ab198151 (20 μg). Tadalafil was diluted to a series of concentrations in sequence of: 0.78, 1.56, 3.125, 6.25, 12.5, 25, 50 and 100 (μM).
On the technique in general: In SPR one partner is held on a chip, and binding of the other changes the refractive index at the surface.

The values below come from patent US11369602B2, “Use of tadalafil as protein arginine methyltransferase (PRMT5) inhibitor” (Fourth Mil. Med. Univ. of People's Lib. Army, priority 2019, dated 2022).

What is called Kd is the free concentration of one partner at which half of the binding sites on the other are occupied at equilibrium, for simple one-to-one binding.

T1 sequence (O14744 whole entry): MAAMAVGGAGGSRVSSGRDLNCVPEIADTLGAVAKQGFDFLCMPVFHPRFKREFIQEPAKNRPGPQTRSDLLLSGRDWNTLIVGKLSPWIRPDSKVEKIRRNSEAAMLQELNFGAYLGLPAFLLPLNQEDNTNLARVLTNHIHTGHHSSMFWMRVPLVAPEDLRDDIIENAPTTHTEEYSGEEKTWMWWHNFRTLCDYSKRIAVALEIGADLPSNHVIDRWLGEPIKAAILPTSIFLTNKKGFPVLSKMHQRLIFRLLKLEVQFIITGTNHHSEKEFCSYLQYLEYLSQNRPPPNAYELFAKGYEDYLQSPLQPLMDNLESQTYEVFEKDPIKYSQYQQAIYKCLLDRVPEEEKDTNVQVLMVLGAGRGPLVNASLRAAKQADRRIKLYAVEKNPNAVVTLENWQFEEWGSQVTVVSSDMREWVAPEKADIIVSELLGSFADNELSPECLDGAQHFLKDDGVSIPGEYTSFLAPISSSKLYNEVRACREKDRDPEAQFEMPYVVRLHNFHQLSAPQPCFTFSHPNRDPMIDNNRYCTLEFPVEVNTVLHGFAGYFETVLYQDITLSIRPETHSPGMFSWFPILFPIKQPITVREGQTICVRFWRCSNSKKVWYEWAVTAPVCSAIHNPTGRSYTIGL
T1 sequence (Q9BQA1 whole entry partner): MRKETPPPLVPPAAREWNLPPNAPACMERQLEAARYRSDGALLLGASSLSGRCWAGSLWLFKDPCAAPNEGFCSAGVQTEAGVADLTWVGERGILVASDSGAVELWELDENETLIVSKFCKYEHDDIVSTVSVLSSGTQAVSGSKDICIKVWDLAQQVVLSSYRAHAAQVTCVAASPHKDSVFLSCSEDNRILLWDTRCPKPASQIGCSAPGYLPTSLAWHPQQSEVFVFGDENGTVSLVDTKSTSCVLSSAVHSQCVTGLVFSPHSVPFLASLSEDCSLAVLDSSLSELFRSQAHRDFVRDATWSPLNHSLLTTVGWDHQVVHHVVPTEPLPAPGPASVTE

With `COc1cccc2c1C(=O)c1c(O)c3c(c(O)c1C2=O)C[C@@](O)(C(=O)CO)C[C@@H]3O[C@H]1C[C@H](N)[C@H](O)[C@H](C)O1` [Doxorubicin], the “mouse tumor volume / tumor growth” value with MDA-MB-231 tumor was “inhibited tumor growth”.

For `O=C(O)c1cc(/N=N/c2ccc(S(=O)(=O)Nc3ccccn3)cc2)ccc1O` [Sulfasalazine], the tumor inhibitory effect result with tumor is recorded as “relatively weak tumor inhibitory effect”. In test [1] (SPR experiment), the “binding ability to PRMT5” value is listed as “lower binding ability to PRMT5”.

With `CN1CC(=O)N2[C@H](c3ccc4c(c3)OCO4)c3[nH]c4ccccc4c3C[C@@H]2C1=O` [Tadalafil], the dissociation constant Kd in test [1] (SPR, Biacore T200, Tadalafil 0.78-100 μM) was 22.7 ± 9.6 µM.
